# Where two headings read alike, the source gives them in different places.
# Columns and labels:
# [1] = system: NADPH-specific D-ketopentose-oxidoreductase; assay: NADPH-specific D-ketopentose-oxidoreductase kinetic parameters; format: biochemical, P. ohmeri ATCC 20209; details: NADP^+ added in excess, in vitro
# Source text: As an illustration of its performances, the following tables indicate the enzyme activities involved in the arabitol metabolic pathway of Pichia ohmeri (Sophie […] Thesis, 1992) The Michaelis-Menten constants highlight the affinities of the NADH and NADPH-D-ketopentose-oxidoreductases for each substrate and the corresponding maximum velocities. [table] The Haldane relationship predicts in vivo enzyme kinetic behaviors. The inhibitory effect of NADP^+ on NADPH-specific D-ketopentose-oxidoreductase has been determined in vitro. The activity is 80% less when NADP^+ is added in excess.
# [2] = system: NADPH-specific D-ketopentose-oxidoreductase; details: crude extract; cited from earlier work
# [3] = system: NADH-specific D-ketopentose-oxidoreductase; details: crude extract; cited from earlier work
# [4] = system: D-Ribose-5-P keto-isomerase; details: crude extract; cited from earlier work
# [5] = system: Acid phosphatase; details: crude extract; cited from earlier work
# [6] = system: D-Ribulose-5-P 3-epimerase; details: crude extract; cited from earlier work
# [7] = system: Transketolase; details: crude extract, cited from earlier work
compound,measurement,setting,value
NC(=O)c1ccc[n+]([C@@H]2O[C@H](COP(=O)([O-])OP(=O)(O)OC[C@H]3O[C@@H](n4cnc5c(N)ncnc54)[C@H](OP(=O)(O)O)[C@@H]3O)[C@@H](O)[C@H]2O)c1 [NADP^+],inhibitory effect: activity less,[1],80%
OC[C@@H](O)C(O)[C@H](O)CO [D-Arabitol],VM,[2],0.8 U/mg
OC[C@@H](O)[C@@H](O)[C@@H](O)CO [Ribitol],Km,[3],16 mM
same,VM,[3],0.16 U/mg
O=C(CO)[C@H](O)[C@H](O)COP(=O)(O)O [D-Ribulose-5-P],Km,[4],0.35 mM
same,VM,[4],1.8 U/mg
same,Km,[5],4.3 mM
same,VM,[5],0.65 U/mg
same,Km,[6],6.3 mM
same,VM,[6],3 U/mg
OC[C@@H](O)[C@H](O)[C@@H](O)CO [Xylitol],VM,[2],0.15 U/mg
same,Km,[3],7 mM
same,VM,[3],0.2 U/mg
O=C(CO)[C@@H](O)[C@H](O)COP(=O)(O)O [D-Xylulose-5-P],Km,[7]; Transketolase (D-ribose-5-P),0.2 mM
same,VM,[7]; Transketolase (D-ribose-5-P),0.9 U/mg
same,Km,[7]; Transketolase (Erythrose-4-P),0.6 mM
same,VM,[7]; Transketolase (Erythrose-4-P),1.45 U/mg
same,Km,[5],16 mM
same,VM,[5],0.11 U/mg
same,Km,[6],6.6 mM
same,VM,[6],0.7 U/mg
O=C(CO)[C@H](O)[C@H](O)CO [D-Ribulose],Km,[2],72 mM
same,VM,[2],3.4 U/mg
same,Km,[3],90 mM
same,VM,[3],1 U/mg
O=C(CO)[C@@H](O)[C@H](O)CO [D-Xylulose],VM,[2],1.5 U/mg
same,Km,[3],5 mM
same,VM,[3],0.6 U/mg
